Here are results for 1 compound from US20210332408A1, “SYSTEMS AND METHODS FOR OPTIMIZATION OF ENZYMES” (Vader Nanotechnologies Inc., priority 2020, published 2021).

The assay concerns bacterial growth. Description: Maximum PFNA experiment, image processing of bacterial growth (FIG. 6). In kind it is cell-based. The following applies: FIG. 6, images at T=0, 10, 80 hrs.

`O=C(O)C(F)(F)C(F)(F)C(F)(F)C(F)(F)C(F)(F)C(F)(F)C(F)(F)C(F)(F)F` [PFNA Solution, Perfluorononanoic acid (PFNA)]: the “bacterial growth with increasing PFNA concentration” value is recorded as “slows bacterial growth”.
